Like-named read-outs stand apart in the source and are kept apart here.
Legend:
[1] = target: nAChRs comprised of α4 and β2 subunits (3H-cytisine binding, cerebral cortex homogenate) (Rattus norvegicus, UniProt P09483+P12390); test: In vitro inhibition of 3H-cytisine binding
Protocol: In Vitro Inhibition of 3H-cytisine Binding
The predominant subtype with high affinity for nicotine is comprised of α4 and β2 subunits. nAChRs of the latter type can selectively be labelled by the nicotine agonist ^3H-cytisine.
Tissue Preparation: Preparations are performed at 0-4° C. unless otherwise indicated. […] The homogenate is centrifuged at 27,000×g for 10 min. The supernatant is discarded and the pellet is resuspended in fresh buffer and centrifuged a second time. The final pellet is resuspended in fresh buffer (35 ml per g of original tissue) and used for binding assays.
Assay: Aliquots of 500 μl homogenate are added to 25 μl of test solution and 25 μl of ^3H-cytisine (1 nM, final concentration), mixed and incubated for 90 min at 2° C. Non-specific binding is determined using (−)-nicotine (100 μM, final concentration). After incubation the samples are added 5 ml of ice-cold buffer and poured directly onto Whatman GF/C glass fibre filters under suction and immediately washed with 2×5 ml ice-cold buffer. The amount of radioactivity on the filters is determined by conventional liquid scintillation counting. Specific binding is total binding minus non-specific binding.
Results are given as IC50 values; the concentration (μM) that inhibit binding of the radioactive ligand by 50 %.

[2] = target: nAChR formed by the α7 subunit (3H-α-bungarotoxin binding, cerebral cortex homogenate) (Rattus norvegicus, UniProt Q05941); test: biochemical
[3] = background statement; cited from earlier work
[4] = rat cerebral cortex, 1 nM 3H-cytisine, 90 min at 2° C., read-out: 3H-cytisine IC50

nAChRs comprised of α4 and β2 subunits (3H-cytisine binding, cerebral cortex homogenate), sequence (P09483 31-630): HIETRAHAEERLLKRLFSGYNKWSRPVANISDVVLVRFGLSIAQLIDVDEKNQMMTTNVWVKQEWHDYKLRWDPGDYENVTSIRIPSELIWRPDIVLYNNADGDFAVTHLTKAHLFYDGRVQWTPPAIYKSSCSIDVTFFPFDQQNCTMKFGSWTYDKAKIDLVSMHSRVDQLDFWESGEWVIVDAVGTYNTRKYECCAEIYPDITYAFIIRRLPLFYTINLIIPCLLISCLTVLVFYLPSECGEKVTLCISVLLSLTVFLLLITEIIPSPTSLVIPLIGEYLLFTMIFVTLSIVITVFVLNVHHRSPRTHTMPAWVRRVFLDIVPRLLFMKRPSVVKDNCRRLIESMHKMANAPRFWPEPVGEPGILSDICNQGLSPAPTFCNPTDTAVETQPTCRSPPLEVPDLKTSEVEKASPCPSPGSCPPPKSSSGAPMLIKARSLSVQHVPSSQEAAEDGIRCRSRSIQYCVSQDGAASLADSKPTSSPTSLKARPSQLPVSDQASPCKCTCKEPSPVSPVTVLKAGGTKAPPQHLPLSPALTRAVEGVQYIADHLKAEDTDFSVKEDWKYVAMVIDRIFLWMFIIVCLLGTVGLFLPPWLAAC
nAChRs comprised of α4 and β2 subunits (3H-cytisine binding, cerebral cortex homogenate), sequence (P12390 25-500): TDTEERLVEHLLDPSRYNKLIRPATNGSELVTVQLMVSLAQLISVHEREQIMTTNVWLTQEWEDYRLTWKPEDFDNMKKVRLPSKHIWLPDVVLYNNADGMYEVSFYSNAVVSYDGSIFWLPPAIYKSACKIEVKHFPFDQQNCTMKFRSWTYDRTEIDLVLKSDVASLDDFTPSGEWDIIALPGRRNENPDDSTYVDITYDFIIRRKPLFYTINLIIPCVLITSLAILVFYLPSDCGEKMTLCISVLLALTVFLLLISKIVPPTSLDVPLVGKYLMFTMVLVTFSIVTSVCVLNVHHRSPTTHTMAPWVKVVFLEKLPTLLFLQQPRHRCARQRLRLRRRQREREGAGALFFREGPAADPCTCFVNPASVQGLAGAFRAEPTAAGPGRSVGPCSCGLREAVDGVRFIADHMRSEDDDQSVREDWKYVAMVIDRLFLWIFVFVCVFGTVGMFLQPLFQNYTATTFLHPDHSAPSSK
nAChR formed by the α7 subunit (3H-α-bungarotoxin binding, cerebral cortex homogenate), sequence (Q05941 23-502): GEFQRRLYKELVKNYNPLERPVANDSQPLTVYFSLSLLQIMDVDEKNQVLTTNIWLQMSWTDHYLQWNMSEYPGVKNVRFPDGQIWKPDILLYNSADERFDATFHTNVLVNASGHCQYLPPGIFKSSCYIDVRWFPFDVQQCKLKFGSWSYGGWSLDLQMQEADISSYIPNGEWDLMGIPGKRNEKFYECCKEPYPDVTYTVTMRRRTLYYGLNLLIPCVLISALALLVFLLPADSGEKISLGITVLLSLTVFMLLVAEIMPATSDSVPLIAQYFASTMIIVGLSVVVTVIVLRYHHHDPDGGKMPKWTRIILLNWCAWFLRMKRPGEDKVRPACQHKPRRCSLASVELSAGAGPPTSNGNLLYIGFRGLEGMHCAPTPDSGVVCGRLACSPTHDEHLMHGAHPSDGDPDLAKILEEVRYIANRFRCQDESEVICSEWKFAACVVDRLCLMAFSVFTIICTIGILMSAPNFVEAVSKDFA

| SMILES | IC50 [1, 4] [µM] | IC50 [2] [µM] | melting point [°C] | IC50 [1] [µM] | analgesic potency relative to morphine [3] |
| --- | --- | --- | --- | --- | --- |
| Cc1ccc2c(c1)OC1(CN3CCC1CC3)O2 (racemic) [Compound 2a, (±)-6-methyl-spiro[benzo-1,3-dioxolane-2,3′-quinuclidine]] | 23 | 0.18 | 173 to 175 | – | – |
| CC(C)(C)c1ccc2c(c1)OC1(CN3CCC1CC3)O2 (racemic) [Compound 3a, (±)-6-t.-Butyl-spiro[benzo-1,3-dioxolane-2,3′-quinuclidine]] | > 10 | 2.3 | 184 to 186 | – | – |
| c1ccc2c(c1)OC1(CN3CCC1CC3)O2 [Compound 1a, Spiro[benzo-1,3-dioxolane-2,3-quinuclidine]] | – | 0.19 | 123 to 125 | 30 | – |
| Clc1ccc(C2CC3CCC2N3)cn1 (stereo not shown) [Epibatidine] | – | – | – | – | ~500 times that of morphine |
